Data on two compounds can be found in patent publication US20080255217A1, “PREVENTIVE OR THERAPEUTIC AGENT FOR CARDIAC DYSFUNCTION OR MYOCARDIAL INJURY CAUSED BY ISCHEMIA OR ISCHEMIA REPERFUSION” (SANWA KAGAKU KENKYUSHO CO., LTD., priority 2005, published 2008).

In data set [1] the test system is hearts of wild-type mice (BDF-1). Put plainly: Isolated heart (Langendorff) ischemia-reperfusion, wild-type mice. More on the design: species or system mouse. The note with it: for deterioration of the cardiac performance and destruction of cardiac muscle due to an ischemia reperfusion injury in a heart: discussion summary of wild-type and hAR-TG results; for increase of left ventricular end-diastolic pressure (LVEDP) after ischemia reperfusion: 1 μM in perfusion solution, FIG. 2; for release of CK from cardiomyocytes: 60-min reperfusion, FIG. 4. On the procedure: (§1) In an experimental test, hearts of 7 to 9 week-old wild-type mice (BDF-1) and hAR-TG were used. From these mice, hearts were isolated under anesthesia of pentobarbital 50 mg/kg i.p., and were placed in ice-cold saline. The isolated hearts were perfused for 20 minutes at a perfusion pressure of 70 mmHg with the Langendorff apparatus (Model IH-1 Type 844, HUGO SACHS ELEKTRONIK, Germany), and was stabilized. Thereafter, after perfusion for 30 minutes under heart function measurement, perfusion solution was completely stopped for 30 minutes, and reperfusion was performed for further 60 minutes, thereby, ischemia-ischemia reperfusion loading was performed. As perfusion solution, Krebs-Henseleit (KH) buffer containing 5.55 mM glucose and 2 mM Na-pyruvate was used. Cardiac performance was assessed by a left ventricular end-diastolic pressure (LVEDP) and peak first derivative of left ventricular systolic pressure (+dP/dt max). These were measured with a pressure transducer connected with a balloon inserted into a left ventricle in condition of hearts paced at 3 volt, 420 beats/min with an electrode placed on the top of a right ventricle, and data thereof were calculated with a four cannel recording device (OMUNIACE RT-3300, NEC, Japan). An AR inhibitor was added to the perfusion solution for 10 minutes from 15 minutes before global ischemia initiation as shown in FIG. 1. Each inhibitor (1 μM SNK-860: SNK, 1-10 μM zopolrestat: ZOP, 10 μM epalrestat: EPA) was dissolved in DMSO, and a DMSO final concentration in a perfusion solution was adjusted to 0.05%. DMSO of the same concentration was also added to a perfusion solution of a control experiment. Cardiomyocytes injury was determined using as an index the release of total creatinine kinase (CK) for 60-min reperfusion, and a myocardial ATP content after 60 minutes reperfusion was determined by the bioluminescence method (Sigma-Aldrich, St. Louis, Mo.) using luciferase, respectively.

The subject of data set [2] is hearts of human aldose reductase (AR) transgenic mice (hAR-TG). Description: Isolated heart (Langendorff) ischemia-reperfusion, hAR-TG mice. More on the design: species or system mouse. The note with it: for increase in LVEDP: FIG. 5; for reduction in +dP/dt max: FIG. 6; for release of CK into a perfusion solution: FIG. 7; for decrease in a myocardial ATP content: after 60 minutes reperfusion, FIG. 8.
Description: In the present invention, not only wild-type mice, but also human aldose reductase (AR) transgenic mice (hAR-TG) which was produced so as to overexpress human-type AR genetically in a mouse, were used for predicting effectiveness in humans which is significant for the development of such a therapeutic agent. As a control for comparison with SNK-860, epalrestat and zopolrestat were used.
as §1
For hAR-TG mice, littermates (LM: hAR non-expression litter mouse) were used as control mice without drug treatment.

The target of data set [3] is aldose reductase (Homo sapiens, UniProt P15121). Description: Aldose reductase inhibitory activity. Type of data set: biochemical. Particulars: background statement.
Data set [4] deals with diabetic cardiomyopathy patients. Particulars: Johnson B F: Diabetes Care 27,448, 2004; cited from earlier work.
For data set [5] the following is noted: drug development ceased; cited from earlier work.
[6] abbreviates: wild-type mice, isolated heart, 1 μM.

With `NC(=O)[C@@H]1C[C@]2(NC(=O)NC2=O)c2cc(F)ccc2O1` [SNK-860, (2S,4S)-6-fluoro-2′,5′-dioxospiro[chroman-4,4′-imidazolidine]-2-carboxamide], the “deterioration of the cardiac performance and destruction of cardiac muscle due to an ischemia reperfusion injury in a heart” value in data set [1] (lower concentration, non-diabetic state) is listed as “completely inhibited”. For the same compound, the “increase of left ventricular end-diastolic pressure (LVEDP) after ischemia reperfusion” value in data set [1] (wild-type mice, isolated heart) is on record as “significantly improved”. Further, the “reduction in peak first derivative of left ventricular systolic pressure (+dP/dt max) immediately after reperfusion” value in data set [1] (wild-type mice, isolated heart, 1 μM, FIG. 3) is “the most remarkable effect”. Besides, the “release of CK from cardiomyocytes” value in data set [1] (setting [6]) was “significant reduction”. Further, in data set [2] (1 μM), the “increase in LVEDP” value is “significant improvement”, the “reduction in +dP/dt max” value is “significant improvement”, the “release of CK into a perfusion solution” value is “equivalent improvement effect to that of the 10 μM epalrestat-addition group” and the “decrease in a myocardial ATP content” value is on record as “equivalent improvement effect to that of the 10 μM epalrestat-addition group”. Moreover, in data set [3], the “aldose reductase inhibitory activity” value was “strong aldose reductase inhibitory activity”.
With `O=C(O)Cc1nn(Cc2nc3cc(C(F)(F)F)ccc3s2)c(=O)c2ccccc12` [zopolrestat], the “deterioration of the cardiac performance and destruction of cardiac muscle due to an ischemia reperfusion injury in a heart” value in data set [1] (high concentration) is given as “only the partial effect”. In data set [1] (wild-type mice, isolated heart), the “increase of left ventricular end-diastolic pressure (LVEDP) after ischemia reperfusion” value is on record as “significantly improved”. For the same compound, the “release of CK from cardiomyocytes” value in data set [1] (setting [6]) is listed as “no effect”. Moreover, in data set [2] (10 μM), the “increase in LVEDP” value is on record as “significant improvement”, the “reduction in +dP/dt max” value was “significant improvement”, the “release of CK into a perfusion solution” value is reported as “significant improvement was not observed” and the “decrease in a myocardial ATP content” value is listed as “significant improvement was not observed”. For the same compound, the “cardiac performance of diabetic cardiomyopathy patients” value in data set [4] was “improves the cardiac performance”. Further, the “manifestation of side effects” value in data set [5] is reported as “hepatic disorders”.
